≈ marks a conversion by molar mass, not a printed value. Read-outs that look alike come from different tables or passages of the source. No end group written: not given here.
What was measured:
E. hirae (4) = tested on: E. hirae (4)
Procedure: (§1) All the strains (see below) used in minimal inhibitory concentration (MIC) assays (Ovchinnikov et al., 2017, Front Microbiol., 8, p774, doi:10.3389/fmicb.2017.00774) were grown in BHI medium (Oxoid) at 30° C. without shaking. The tested strains were obtained from the LMG collection. […] NisinZ and micrococcin P1 were purified from source. Synthesized peptides were solubilized to concentrations of 10.0-0.1 mg/ml in 0.1% (vol/vol) trifluoroacetic acid and stored at −20° C. until use. Garvicin KS is made up of 3 peptides:
(§2) Bacteriocin activity was determined using a microtitre plate assay. The plates were incubated at 30° C. for 8 h and the growth was measured spectrophotometrically at 600 nm (A600) with 15 min intervals using SPECTROstarNano (BMG LABTECH, Germany). The MIC was defined as the bacteriocin concentration that inhibited the growth of the indicator strain by at least 50% in 200 μl culture (i.e., 50% of the turbidity of the control culture without bacteriocin).

E. faecium (2) = tested on: E. faecium (2)
Procedure: as §1, §2

Listeria spp. (3) = tested on: Listeria spp. (3)
Procedure: as §1, §2

S. pseudointermedius (3) = tested on: S. pseudointermedius (3)
Procedure: as §1, §2

E. faecalis (2) = conditions: 2
Procedure: as §1, §2

KAVA = assay: MIC microtitre plate assay, pathogenic isolates; type: cell-based
Procedure: The tested strains were obtained from the LMG collection. […] NisinZ and micrococcin P1 were purified from source. […] Garvicin KS is made up of 3 peptides:
Bacteriocin activity was determined using a microtitre plate assay. The plates were incubated at 30° C. for 8 h and the growth was measured spectrophotometrically at 600 nm (A600) with 15 min intervals using SPECTROstarNano (BMG LABTECH, Germany).

SP 4013 = assay: organism not typed
Procedure: as §1, §2

SP 4014 = assay: organism not typed
Procedure: as §1, §2

SP 4012 = assay: organism not typed
Procedure: as §1, §2

Sa ATCC 33591 = assay: microbe, parasite or virus in culture
Procedure: as §1, §2

Sa 3328 = assay: microbe, parasite or virus in culture
Procedure: as §1, §2

SH 4016 = assay: microbe, parasite or virus in culture
Procedure: as §1, §2

Sa3324 = assay: microbe, parasite or virus in culture
Procedure: as §1, §2

Sa 3242 = assay: microbe, parasite or virus in culture
Procedure: as §1, §2

SH 4015 = assay: microbe, parasite or virus in culture
Procedure: as §1, §2

Sa3323 = assay: microbe, parasite or virus in culture
Procedure: as §1, §2

[1] = tested on: EntEJ97/EntK1 resistant mutants of E. faecalis and E. faecium; assay: Challenge of EntEJ97/EntK1 resistant mutants with non-related bacteriocins; type: cell-based; conditions: all HR and LR mutants, compared to WT
Excerpt: To analyze whether this active site is important for bacteriocin sensitivity, we changed the invariant residues in this motif —H18-E19-F20-G21-H22—one by one and altogether in the enterococcal RseP (invariant residues underlined) to alanine and then assessed for bacteriocin sensitivity.

Molecule: MKFKFNPTGTIVKKLTQYEINWYKQQYGRYPWERPVA [K1-EJ hybrid]
- MIC (E. hirae (4)): 0.1 to 0.4 µg/mL
- MIC (E. faecium (2); E. faecium (2), Table 6B): <0.05 to 0.4 µg/mL
- MIC (Listeria spp. (3)): 6.25 to 25 µg/mL
- MIC (S. pseudointermedius (3)): 12.5 to 25 µg/mL
- MIC (E. faecalis (2)): 1.6 to 3.1 µg/mL
- MIC (KAVA; KAVA): >50 µg/mL
- MIC (SP 4013): 12.5 µg/mL
- MIC (SP 4014): 12.5 µg/mL
- MIC (SP 4012): 25 µg/mL
- MIC (Sa ATCC 33591; ATCC 33591): >50 µg/mL
- MIC (Sa 3328): 3.1 µg/mL
- MIC (SH 4016): 0.8 to 1.6 µg/mL
- MIC (Sa3324): 6.25 µg/mL
- MIC (Sa 3242): 3.1 µg/mL
- MIC (SH 4015): 0.8 µg/mL
- MIC (Sa3323): 3.2 to 6.25 µg/mL

Molecule: garvicin ML
- sensitivity of EntEJ97/EntK1 resistant mutants to non-related bacteriocin [1]: as sensitive as the WT strains

Molecule: MLAKIKAMIKKFPNPYTLAAKLTTYEIAWFKNKHGYYPWEIPRC [EJ-K1 hybrid]
- MIC (E. hirae (4)): 3.2 to 6.3 µg/mL
- MIC (E. faecium (2); 2): 3.15 µg/mL
- MIC (S. pseudointermedius (3)): 50 µg/mL
- MIC (E. faecalis (2)): 25 to 50 µg/mL
- MIC (KAVA; KAVA): >50 µg/mL
- MIC (SP 4013): >50 µg/mL
- MIC (SP 4014): >50 µg/mL
- MIC (SP 4012): >50 µg/mL
- MIC (Sa ATCC 33591; ATCC 33591): >50 µg/mL
- MIC (Sa 3328): 6.25 µg/mL
- MIC (SH 4016): 50 µg/mL
- MIC (Sa3324): 12.5 µg/mL
- MIC (Sa 3242): 12.5 µg/mL
- MIC (SH 4015): 50 µg/mL
- MIC (Sa3323): 3.2 to 6.25 µg/mL

Molecule: MIKKFPNPYTLAAKLTTYEINWYKQQYGRYPWERPVA [EntEJ97short]
- MIC (E. hirae (4)): 0.1 to 0.4 µg/mL
- MIC (E. faecium (2); 2): 12.5 to 25 µg/mL
- MIC (Listeria spp. (3)): >50 µg/mL
- MIC (S. pseudointermedius (3)): 1.6 to 31 µg/mL
- MIC (E. faecalis (2)): 1.6 µg/mL
- MIC (KAVA; KAVA): >50 µg/mL
- MIC (SP 4013): 3.1 µg/mL
- MIC (SP 4014): 1.6 to 3.1 µg/mL
- MIC (SP 4012): 3.1 µg/mL
- MIC (Sa ATCC 33591; ATCC 33591): >50 µg/mL
- MIC (Sa 3328): 3.1 µg/mL
- MIC (SH 4016): 1.6 to 3.1 µg/mL
- MIC (Sa3324): 6.25 µg/mL
- MIC (Sa 3242): 12.5 µg/mL
- MIC (SH 4015): 1.6 to 3.1 µg/mL
- MIC (Sa3323): 3.1 to 6.25 µg/mL

Molecule: C/C=C(\NC(=O)c1csc(-c2csc(-c3ccc4c(n3)-c3csc(n3)[C@H]([C@@H](C)O)NC(=O)c3csc(n3)[C@H](C(C)C)NC(=O)c3csc(n3)/C(=C/C)NC(=O)[C@H]([C@@H](C)O)NC(=O)c3csc-4n3)n2)n1)C(=O)NC[C@@H](C)O [micrococcinP1, Micrococcin P1, reference compound]
- MIC (KAVA): > 12.5 µg/mL
- MIC (SP 4013): 0.4 µg/mL (≈ 0.35 µM)
- MIC (SP 4014): 0.8 µg/mL (≈ 0.699 µM)
- MIC (SP 4012): 0.4 µg/mL (≈ 0.35 µM)
- MIC (Sa ATCC 33591; Staphylococcus aureus, ATCC33591): 0.4 µg/mL (≈ 0.35 µM)
- MIC (Sa 3328; Staphylococcus aureus, 3328): 0.1 µg/mL (≈ 0.0874 µM)
- MIC (SH 4016; Staphylococcus haemolyticus): 1.6 µg/mL (≈ 1.4 µM)
- MIC (Sa3324; Staphylococcus aureus): 0.1 µg/mL (≈ 0.0874 µM)
- MIC (Sa 3242; Staphylococcus aureus, 3242): 0.2 µg/mL (≈ 0.175 µM)
- MIC (SH 4015; Staphylococcus haemolyticus): 1.6 µg/mL (≈ 1.4 µM)
- MIC (Sa3323; Staphylococcus aureus): 0.1 µg/mL (≈ 0.0874 µM)

Molecule: C=C(NC(=O)[C@@H](NC(=O)[C@H](Cc1c[nH]cn1)NC(=O)[C@@H](NC(=O)[C@H](CO)NC(=O)[C@@H]1CS[C@@H](C)[C@H]2NC(=O)[C@H](C)NC(=O)[C@H](NC(=O)[C@H](CCCCN)NC(=O)[C@H](CCSC)NC(=O)[C@H](CC(N)=O)NC(=O)[C@@H]3CS[C@@H](C)[C@@H](NC(=O)[C@H](CCCCN)NC(=O)[C@@H]4CS[C@@H](C)[C@@H](NC(=O)[C@@H]5CSC[C@@H](NC(=O)/C(=C/C)NC(=O)[C@@H](N)[C@@H](C)CC)C(=O)N[C@@H]([C@@H](C)CC)C(=O)NC(=C)C(=O)N[C@@H](CC(C)C)C(=O)N5)C(=O)N5CCC[C@H]5C(=O)NCC(=O)N4)C(=O)NCC(=O)N[C@@H](C)C(=O)N[C@@H](CC(C)C)C(=O)N[C@@H](CCSC)C(=O)NCC(=O)N3)[C@H](C)SC[C@H](NC2=O)C(=O)N[C@@H](CC(N)=O)C(=O)N1)[C@@H](C)CC)C(C)C)C(=O)N[C@@H](CCCCN)C(=O)O [NisinZ, reference compound]
- MIC (SP 4013; SP 4013 (S. pseudointermedius)): 0.4 µg/mL (≈ 0.12 µM)
- MIC (SP 4014; SP 4014 (S. pseudointermedius)): 0.4 µg/mL (≈ 0.12 µM)
- MIC (SP 4012; SP 4012 (S. pseudointermedius)): 0.4 µg/mL (≈ 0.12 µM)
- MIC (Sa ATCC 33591; Sa ATCC 33591 (S. aureus)): 0.8 µg/mL (≈ 0.24 µM)
- MIC (Sa 3328; Sa 3328 (S. aureus)): 0.8 µg/mL (≈ 0.24 µM)
- MIC (SH 4016; SH 4016 (S. haemolyticus)): 1.6 to 3.1 µg/mL
- MIC (Sa3324; Sa3324 (S. aureus)): 1.6 µg/mL (≈ 0.48 µM)
- MIC (Sa 3242; Sa 3242 (S. aureus)): 3.1 µg/mL (≈ 0.931 µM)
- MIC (SH 4015; SH 4015 (S. haemolyticus)): 1.6 to 3.1 µg/mL
- MIC (Sa3323; Sa3323 (S. aureus)): 6.25 µg/mL (≈ 1.88 µM)

B1: GarKS: Garvicin KS is made up of 3 peptides (SEQ ID NO:43, 44, 45) (peptide, listed as Lactococcus garvieae)
chain 1: MGAIIKAGAKIVGKGVLGGGASWLGWNVGEKIWK
chain 2: MGAIIKAGAKIIGKGLLGGAAGGATYGGLKKIFG
chain 3: MGAIIKAGAKIVGKGALTGGGVWLAEKLFGGK
- MIC (KAVA; KAVA): 6.25 to 12.5 µg/mL
- MIC (SP 4013; SP 4013 (S. pseudointermedius)): 6.25 µg/mL
- MIC (SP 4014; SP 4014 (S. pseudointermedius)): 6.25 µg/mL
- MIC (SP 4012; SP 4012 (S. pseudointermedius)): 6.25 µg/mL
- MIC (Sa ATCC 33591; Sa ATCC 33591 (S. aureus)): 12.5 µg/mL
- MIC (Sa 3328; Sa 3328 (S. aureus)): 3.1 µg/mL
- MIC (SH 4016; SH 4016 (S. haemolyticus)): 6.25 µg/mL
- MIC (Sa3324; Sa3324 (S. aureus)): 6.25 µg/mL
- MIC (Sa 3242; Sa 3242 (S. aureus)): 3.1 µg/mL
- MIC (SH 4015; SH 4015 (S. haemolyticus)): 6.25 µg/mL
- MIC (Sa3323; Sa3323 (S. aureus)): 6.25 µg/mL

Source: patent publication US11648289B2, “Antibacterial method” (priority 2016, dated 2023)
